Assay results taken from US8889591B2, “Herbicidal compositions comprising 4-amino-3-chloro-5-fluoro-6-(4-chloro-2-fluoro-3-methoxyphenyl)pyridine-2-carboxylic acid or a derivative thereof and bromobutide, daimuron, oxaziclomefone or pyributicarb” (Dow Agrosciences LLC, priority 2012, dated 2014).

Test system: CYPRO
Assay: In-water applied greenhouse weed control, transplanted paddy rice system
Type: in vivo, Cyperus rotundus L.
Settings: in-water application
Description: Weed seeds or nutlets of the desired test plant species were planted in puddled soil (mud) prepared by mixing a shredded, non-sterilized mineral soil (50.5 percent silt, 25.5 percent clay, and 24 percent sand, with a pH of about 7.6 and an organic matter content of about 2.9 percent) and water at a 1:1 volumetric ratio. The prepared mud was dispensed in 365 mL aliquots into 16-ounce (oz.) non-perforated plastic pots with a surface area of 86.59 square centimeters (cm^2) leaving a headspace of 3 centimeters (cm) in each pot. Mud was allowed to dry overnight prior to planting or transplanting. Rice seeds were planted in Sun Gro MetroMix® 306 planting mixture, which typically has a pH of 6.0 to 6.8 and an organic matter content of about 30 percent, in plastic plug trays. Seedlings at the second or third leaf stage of growth were transplanted into 840 mL of mud contained in 32-oz. non-perforated plastic pots with a surface area of 86.59 cm^2 4 days prior to herbicide application. The paddy was created by filling the headspace of the pots with 2.5 to 3 cm of water. When required to ensure good germination and healthy plants, a fungicide treatment and/or other chemical or physical treatment was applied. The plants were grown for 4-22 days in a greenhouse with an approximate 14 h photoperiod which was maintained at about 29° C. during the day and 26° C. during the night. Nutrients were added as Osmocote® (19:6:12, N:P:K+ minor nutrients) at 2 g per 16-oz. pot and 4 g per 32-oz. pot. Water was added on a regular basis to maintain the paddy flood, and supplemental lighting was provided with overhead metal halide 1000-Watt lamps as necessary. The plants were employed for testing when they reached the first through fourth true leaf stage.
Treatments consisted of the acid or esters of 4-amino-3-chloro-5-fluoro-6-(4-chloro-2-fluoro-3-methoxy-phenyl)pyridine-2-carboxylic acid (compound A) each formulated as an SC and various herbicidal components alone and in combination. Forms of compound A were applied on an acid equivalent basis.
Other herbicidal components were applied on an active ingredient basis and included daimuron formulated as an EC, bromobutide (technical grade material), and oxaziclomefone (technical grade material).
Treatment requirements for each compound or herbicidal component were calculated based upon the rates being tested, the concentration of active ingredient or acid equivalent in the formulation, an application volume of 2 mL per component per pot, and an application area of 86.59 cm^2 per pot.
For formulated compounds, a measured amount was placed in an individual 100 or 200 mL glass vial and was dissolved in a volume of 1.25% (v/v) Agri-Dex® crop oil concentrate to obtain application solutions.
For technical grade compounds, a weighed amount was placed in an individual 100 to 200 mL glass vial and was dissolved in a volume of acetone to obtain concentrated stock solutions. […] The concentrated stock solutions obtained were diluted with an equivalent volume of an aqueous mixture containing 2.5% (v/v) crop oil concentrate so that the final application solutions contained 1.25% (v/v) crop oil concentrate.
Applications were made by injecting, with a pipetter, appropriate amounts of the application solutions, individually and sequentially, into the aqueous layer of the paddy. Control plants were treated in the same manner with the solvent blank. Applications were made so that all treated plant material received the same concentrations of acetone and crop oil concentrate.
The treated plants and control plants were placed in a greenhouse as described above and water was added as needed to maintain a paddy flood. After approximately 3 weeks the condition of the test plants as compared with that of the untreated plants was determined visually and scored on a scale of 0 to 100 percent where 0 corresponds to no injury or growth inhibition and 100 corresponds to complete kill. […]

COc1c(Cl)ccc(-c2nc(C(=O)OCc3ccccc3)c(Cl)c(N)c2F)c1F [Compound A Benzyl Ester]
Visual Weed Control (%) - 19 DAA CYPRO Obs (Compound A Benzyl Ester 8 gae/ha alone): 50% | Visual Weed Control (%) - 21 DAA CYPRO Obs (Compound A Benzyl Ester 8.75 gae/ha alone): 60% | Visual Weed Control (%) - 19 DAA CYPRO Obs (Compound A Benzyl Ester 16 gae/ha alone): 85% | Visual Weed Control (%) - 19 DAA CYPRO Obs (Compound A Benzyl Ester 32 gae/ha alone): 90%
